# Results reported in patent US20250228865A1, “COMPOUNDS FOR ENHANCING READ THROUGH OF GENES CONTAINING PREMATURE TERMINATION CODONS AND METHODS FOR MAKING AND USING THE SAME” (Sanofi US Services Inc., priority 2022, published 2025).
# Tests used:
# [1] = tested on: recombinant human CFTR carrying the premature stop codon (PTC) mutation G542X; assay: CFTR-PTC mutant translation readthrough, Nanoluc tagged CFTR luminescence (G542X cell line); assay type: cell-based; conditions: in combination with G418, G542X cell line
# Method in brief: (§1)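 Readthrough is the 48 h compound-induced luminescence increase scaled to that of maximal G418 (125-250 μM). Compounds run from 50 μM final in 2-fold steps, ±10 μM G418, on 16HBE lines carrying Nanoluc-tagged CFTR G542X (extracellular loop 4 tag) or R1162X (C-terminal tag), with 3 μM VX-809 present.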
# [2] = tested on: recombinant human CFTR carrying the premature stop codon (PTC) mutation R1162X; assay: CFTR-PTC mutant translation readthrough, Nanoluc tagged CFTR luminescence (R1162X cell line); assay type: cell-based
# Method in brief: as §1
# CFTR R1162X = assay: Functional CFTR channel activity, TECC-24 electrophysiology, 16HBE cells (CFTR R1162X readthrough); assay type: cell-based, human
# Method: 16HBE human bronchial epithelial cells were seeded onto Transwell 24-well filter inserts coated with human collagen type IV. Cells were seeded 7 days prior to functional testing at a density of 1.7×10^5 cells onto the “apical” chamber filter of the Transwell insert. Cells were grown as submerged cultures (200 μL apical/700 μL basolateral) in Minimal Essential Medium (MEM) containing 10% qualified Fetal Bovine Serum and 1% Penicillin/Streptomycin and incubated at 37° C. and 5% CO2. Growth media on cells was replenished with fresh media every 1-3 days prior to test agent treatment day. After 7 days in culture, the CFTR-mediated chloride (Cl^−) equivalent current (Ieq) of the 16HBE cells was recorded, which may typically form electrically tight epithelia with a transepithelial resistance (Rt) of 2000-6000 Ω·cm2 as described below. Forty-eight hours prior to electrophysiological measurements, fresh growth media containing the test agents was applied to both chambers separating filter bound epithelial monolayer.
# On the day of electrophysiology studies, electrodes of a “Multi-(24-channel) transepithelial current clamp amplifier” (MTECC-24 (TECC-24 for short), EP Devices, Belgium) were soaked in an assay buffer (see below for composition) for at least 2 hours using 24-well Transwell plates without inserts. Cell culture media was replaced in the Transwell assay plates with assay buffer (see below) and the plates were mounted onto a custom-built automated robotic assay platform (Yamaha RCX240S controller) with heated plate holders set at 37° C. for 60 min. After equilibration, transepithelial potential difference (PD) and resistance (Rt) was monitoredat ˜5 min intervals using the TECC-24 transepithelial current clamp. Electrode potential differences were monitored for each pair of Ag/AgCl voltage electrodes by taking voltage measurements from a control (“blank”) plate with matching buffer solutions and 16HBE cells that were not treated with any test agent. PD values for each electrode pair were subtracted from the blank plate from that of the test plates at each time point. Ieq was calculated from the corrected PD values and Rt using Ohm's law. Ieq values were slope corrected to account for measurement drift over time using the equation: Slope corrected value=calculated Ieq−((time x slope)+y-intercept) with the slope and y-intercept calculated from the data points captured during the initial baseline period and following addition of the CFTR inhibitor.
# The equivalent current (Ieq) traces associated with CFTR channel activation were plotted as baseline subtracted mean±standard deviation from 3-4 separate wells on the 24-well Transwell (n=3-4). There are 4 recording periods, with the first set of data points recorded baseline Ieq currents prior to sequential activation of available CFTR channels with forskolin (10 μM) and then in combination with potentiator VX-770/ivacaftor (1 μM). Recorded the last set of data points in the presence of CFTR inhibitor CFTRinh-172 (20 μM) to confirm that currents are mediated via activation of CFTR channels. The test agents and control/reference compounds were pre-diluted to 10-fold concentrations in assay buffer and added manually using a multi-channel pipette to both the basolateral and apical side of the membrane (test plates only). Employed CFTR-mediated changes in Ieq, (i.e. forskolin/VX-770 activated currents) to measure functional CFTR surface expression or treatment-related functional rescue of mutant CFTR.
# The magnitude of test agent mediated enhancement of functional CFTR currents was calculated by comparing forskolin/VX-770 stimulated Ieq relative to baseline/CFTRinh-172 Ieq following 48 hour pretreatment with test agent(s) and normalizing to the forskolin/VX-770 stimulated Ieq determined following 48 hour pretreatment with a maximally effective concentration a reference control aminoglycoside agent (typically 110 μM G418). […]
# [3] = RTM 1 uM, no eRF3 modulator, ELX-02 100 uM
# [4] = RTM conc. —, eRF3 modulator (CC-90009) 1 uM, ELX-02 100 uM
# [5] = RTM 1 uM, eRF3 modulator (CC-90009) 1 uM, ELX-02 100 uM
smiles,measurement,setting,value
"OC[C@@H]1CN(c2ncc(OCc3c(Cl)cccc3Cl)cn2)CCO1 [[(2S)-4-[5-[(2,6-dichlorophenyl)methoxy]pyrimidin-2-yl]morpholin-2-yl]methanol]",CFTR G542X ACTIVITY Fold 10 μM G-418,[1]; fold over 10 μM G-418,A′ (A′ = ≥10X)
same,EC50,[1]; 16HBE cells,< 1000 nM
same,CFTR R1162X ACTIVITY Fold 10 μM G-418,"[2]; fold over 10 μM G-418, in combination with G418",A′ (A′ = ≥10X)
same,EC50,"[2]; in combination with G418, 16HBE cells, read-out: CFTR R1162X ACTIVITY EC50",< 1000 nM
OCc1cn(-c2ncc(OCc3c(Cl)cccc3Cl)cn2)cn1 [drawing 797],Currents (% of 110 μM G418 (Max effect)),"CFTR R1162X; RTM 0.5 uM, no eRF3 modulator, G418 10 uM",64 % of 110 μM G418 (Max effect)
OCc1cn(-c2ncc(OCc3c(Cl)cccc3Cl)cn2)cn1 [drawing 798],Currents (% of 110 μM G418 (Max effect)),"CFTR R1162X; RTM 0.5 uM, eRF3 modulator (CC-90009) 1 uM, G418 10 uM",472 % of 110 μM G418 (Max effect)
OCc1cn(-c2ncc(OCc3c(Cl)cccc3Cl)cn2)cn1 [drawing 799],Currents (% of 110 μM G418 (Max effect)),"CFTR R1162X; RTM 0.5 uM, no eRF3 modulator, ELX-02 100 uM",51 % of 110 μM G418 (Max effect)
OCc1cn(-c2ncc(OCc3c(Cl)cccc3Cl)cn2)cn1 [drawing 800],Currents (% of 110 μM G418 (Max effect)),"CFTR R1162X; RTM 0.5 uM, eRF3 modulator (CC-90009) 1 uM, ELX-02 100 uM",473 % of 110 μM G418 (Max effect)
OCc1ccn(-c2ncc(OCc3c(Cl)cccc3Cl)cn2)n1 [drawing 801],Currents (% of 110 μM G418 (Max effect)),CFTR R1162X; [3],102 % of 110 μM G418 (Max effect)
OCc1ccn(-c2ncc(OCc3c(Cl)cccc3Cl)cn2)n1 [drawing 802],Currents (% of 110 μM G418 (Max effect)),CFTR R1162X; [4],63 % of 110 μM G418 (Max effect)
OCc1ccn(-c2ncc(OCc3c(Cl)cccc3Cl)cn2)n1 [drawing 803],Currents (% of 110 μM G418 (Max effect)),CFTR R1162X; [5],300 % of 110 μM G418 (Max effect)
Cc1cccc(C(F)(F)F)c1COc1ccc(-c2nc(CO)n[nH]2)cc1 [drawing 804],Currents (% of 110 μM G418 (Max effect)),CFTR R1162X; [3],106 % of 110 μM G418 (Max effect)
Cc1cccc(C(F)(F)F)c1COc1ccc(-c2nc(CO)n[nH]2)cc1 [drawing 805],Currents (% of 110 μM G418 (Max effect)),CFTR R1162X; [4],63 % of 110 μM G418 (Max effect)
Cc1cccc(C(F)(F)F)c1COc1ccc(-c2nc(CO)n[nH]2)cc1 [drawing 806],Currents (% of 110 μM G418 (Max effect)),CFTR R1162X; [5],269 % of 110 μM G418 (Max effect)
O=C1N[C@H](CO)CN1c1ccc(OCc2c(Cl)cccc2Cl)cn1 [drawing 807],Currents (% of 110 μM G418 (Max effect)),CFTR R1162X; [3],70 % of 110 μM G418 (Max effect)
O=C1N[C@H](CO)CN1c1ccc(OCc2c(Cl)cccc2Cl)cn1 [drawing 808],Currents (% of 110 μM G418 (Max effect)),CFTR R1162X; [4],63 % of 110 μM G418 (Max effect)
O=C1N[C@H](CO)CN1c1ccc(OCc2c(Cl)cccc2Cl)cn1 [drawing 809],Currents (% of 110 μM G418 (Max effect)),CFTR R1162X; [5],266 % of 110 μM G418 (Max effect)
OCc1ncn(-c2ncc(OCc3c(Cl)cccc3C(F)(F)F)cn2)n1 [drawing 810],Currents (% of 110 μM G418 (Max effect)),"CFTR R1162X; RTM 3 uM, no eRF3 modulator, ELX-02 100 uM",102 % of 110 μM G418 (Max effect)
OCc1ncn(-c2ncc(OCc3c(Cl)cccc3C(F)(F)F)cn2)n1 [drawing 811],Currents (% of 110 μM G418 (Max effect)),CFTR R1162X; [4],77 % of 110 μM G418 (Max effect)
OCc1ncn(-c2ncc(OCc3c(Cl)cccc3C(F)(F)F)cn2)n1 [drawing 812],Currents (% of 110 μM G418 (Max effect)),"CFTR R1162X; RTM 3 uM, eRF3 modulator (CC-90009) 1 uM, ELX-02 100 uM",288 % of 110 μM G418 (Max effect)
OCc1cn(-c2ncc(OCc3c(Cl)cccc3Cl)cn2)cn1 [drawing 813],Currents (% of 110 μM G418 (Max effect)),"CFTR R1162X; RTM 0.5 uM, no eRF3 modulator, Paramomycin 2000 uM",7 % of 110 μM G418 (Max effect)
OCc1cn(-c2ncc(OCc3c(Cl)cccc3Cl)cn2)cn1 [drawing 814],Currents (% of 110 μM G418 (Max effect)),"CFTR R1162X; RTM 0.5 uM, eRF3 modulator (CC-90009) 1 uM, Paramomycin 2000 uM",183 % of 110 μM G418 (Max effect)
Cc1cccc(C(F)(F)F)c1COc1ccc(N2CC(CO)OC2=O)cc1 (centres unmarked) [drawing 815],Currents (% of 110 μM G418 (Max effect)),"CFTR R1162X; RTM 1 uM, no eRF3 modulator, G418 10 uM",76 % of 110 μM G418 (Max effect)
